This note sets out measurements from patent US11053219B2, “Substituted pyridines as TYK2 inhibitors” (FronThera U.S. Pharmaceuticals LLC, priority 2018, dated 2021).

By Kd is commonly meant the equilibrium constant for the complex coming apart. As a reminder, the IC50 is the point on the concentration scale where inhibition reaches its midpoint.

For one assay, the target named is TYK2 (JH2 domain) (Homo sapiens (Human), UniProt P29597). The experiment in a line: TYK2 JH2 domain binding assay (DiscoverX KINOMEscan). The following applies: 11-point 3-fold dilution, duplicate.
Chain of TYK2 (JH2 domain) (P29597 589-875): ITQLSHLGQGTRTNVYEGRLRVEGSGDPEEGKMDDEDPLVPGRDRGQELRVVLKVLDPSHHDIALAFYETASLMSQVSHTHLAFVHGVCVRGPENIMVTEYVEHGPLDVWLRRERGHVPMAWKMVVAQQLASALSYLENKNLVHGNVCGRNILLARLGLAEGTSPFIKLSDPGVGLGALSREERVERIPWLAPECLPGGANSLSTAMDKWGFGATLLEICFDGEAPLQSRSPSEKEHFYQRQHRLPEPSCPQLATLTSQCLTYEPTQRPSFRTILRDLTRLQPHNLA
For the molecule `COc1c(Nc2cc(N3CCN(C(C)C)C3=O)ncc2C(=O)C2CC2)cccc1-c1ncn(C)n1` [Example 35], the Kd is at most 1 nM.

`[2H]C([2H])([2H])NC(=O)c1nnc(/C=C/C2CC2)cc1Nc1cccc(-c2ncn(C)n2)c1OC` [Example 45] had a Kd of at most 1 nM. On the same count and under the same terms, the same measure for `COc1c(Nc2cc(Cl)nnc2C(=O)C(F)F)cccc1-c1ncn(C)n1` [Example 46]: at most 1 nM; for `[2H]C([2H])([2H])NC(=O)c1nnc(N2CC3(COC3)C2)cc1Nc1cccc(-c2ncn(C)n2)c1OC` [Example 53]: at most 1 nM; for `[2H]C([2H])([2H])NC(=O)c1nnc(N2CC(F)(F)C2)cc1Nc1cccc(-c2ncn(C)n2)c1OC` [Example 58]: 5 to 10 nM. On the same count and under the same terms, the same measure for `[2H]C([2H])([2H])NC(=O)c1nnc(-n2cccn2)cc1Nc1cccc(-c2ncn(C)n2)c1OC` [Example 65]: 5 to 10 nM. `[2H]C([2H])([2H])NC(=O)c1nnc(-n2ccc(C)n2)cc1Nc1cccc(-c2ncn(C)n2)c1OC` [Example 66] returned a Kd of 1 to 5 nM. The same measure, in the same setting: the same measure for `[2H]C([2H])([2H])NC(=O)c1nnc(N2CCCC2)cc1Nc1cccc(-c2ncn(C)n2)c1OC` [Example 70]: 1 to 5 nM; for `[2H]C([2H])([2H])NC(=O)c1nnc(C=C(C)C)cc1Nc1cccc(-c2ncn(C)n2)c1OC` [Example 73]: 5 to 10 nM; for `[2H]C([2H])([2H])NC(=O)c1nnc(N2CCC3(CCNCC3)C2=O)cc1Nc1cccc(-c2ncn(C)n2)c1OC` [Example 75]: at most 1 nM. Same read-out and setting: the same measure for `[2H]C([2H])([2H])NC(=O)c1nnc(N2C[C@H](O)CC2=O)cc1Nc1cccc(-c2ncn(C)n2)c1OC` [Example 76]: 1 to 5 nM; for `[2H]C([2H])([2H])NC(=O)c1nnc(N2CCN(C3CCC3O)C2=O)cc1Nc1cccc(-c2ncn(C)n2)c1OC` (centres unmarked) [Example 81]: at most 1 nM; for `[2H]C([2H])([2H])NC(=O)c1nnc(N2CCN(C(C)C(F)(F)F)C2=O)cc1Nc1cccc(-c2ncn(C)n2)c1OC` (centres unmarked) [Example 83]: at most 1 nM. On the same count and under the same terms, the same measure for `[2H]C([2H])([2H])NC(=O)c1nnc(N2CCN(CC(C)(C)O)C2=O)cc1Nc1cccc(-c2ncn(C)n2)c1OC` [Example 90]: at most 1 nM.

In turn, `[2H]C([2H])([2H])NC(=O)c1nnc(N2CCN(C(CO)C(C)C)C2=O)cc1Nc1cccc(-c2ncn(C)n2)c1OC` (centres unmarked) [Example 92] yielded a Kd of at most 1 nM. In turn, `[2H]C([2H])([2H])NC(=O)c1nnc(N2CCN(CCN(CC)CC)C2=O)cc1Nc1cccc(-c2ncn(C)n2)c1OC` [Example 93] showed a Kd of at most 1 nM. On the same count and under the same terms, the same measure for `[2H]C([2H])([2H])NC(=O)c1nnc(N2CCN(C(C)COC)C2=O)cc1Nc1cccc(-c2ncn(C)n2)c1OC` (centres unmarked) [Example 97]: at most 1 nM. On the same count and under the same terms, the same measure for `[2H]C([2H])([2H])NC(=O)c1nnc(N2CCN(C3CC(C)(C)C3)C2=O)cc1Nc1cccc(-c2ncn(C)n2)c1OC` [Example 101]: at most 1 nM. `[2H]C([2H])([2H])NC(=O)c1nnc(N2CCN(C(CC)CC)C2=O)cc1Nc1cccc(-c2ncn(C)n2)c1OC` [Example 102] came in with a Kd of at most 1 nM. Still for that read-out and setting: the same measure for `Cn1cnc(-c2cccc3c2OCCOCCOc2nnccc2N3)n1` [Example 104]: 5 to 10 nM. Still for that read-out and setting: the same measure for `COc1c(Nc2cc(N[S@+]([O-])C(C)(C)C)ncc2C(=O)C2CC2)cccc1-c1ncn(C)n1` [Example 118]: over 10 nM; for `COc1c(Nc2cc(N[S@@+]([O-])C(C)(C)C)ncc2C(=O)C2CC2)cccc1-c1ncn(C)n1` [Example 123]: over 10 nM.

The next assay relates to INFα induced pSTAT5 in human PBMC. Description: INFα induced pSTAT5 in human PBMC. The assay is classed as cell-based. The settings on record: Homo sapiens, PBMC, read-out: p-STAT5 IC50.
Regarding `[2H]C([2H])([2H])Oc1c(Nc2cc(NC(=O)C3CC3)ncc2C(=O)C2CC2)cccc1-c1ncn(C([2H])([2H])[2H])n1` [Example 127], the IC50 was under 100 nM. Still for that read-out and setting: the same measure for `COc1c(Nc2cc(N[S+]([O-])C(C)(C)C)ncc2C(=O)C2CC2)cccc1-c1ncn(C)n1` (centres unmarked) [Example 128]: 1000 to 10000 nM.

Still in this assay, the particulars now being: human PBMC, INFα 5000 units/ml; read-out: p-STAT5 IC50.
As for `COc1c(Nc2cc(Nc3cc(C)ccn3)ncc2C(=O)C2CC2)cccc1-c1ncn(C)n1` [Example 107], the half-maximal inhibitory concentration (IC50) was under 100 nM. The same measure, in the same setting: the same measure for `COc1c(Nc2cc(Nc3cccnn3)ncc2C(=O)C2CC2)cccc1-c1ncn(C)n1` [Example 109]: under 100 nM. Still for that read-out and setting: the same measure for `COc1c(Nc2cc(Nc3ccc(N4CCOCC4)cn3)ncc2C(=O)C2CC2)cccc1-c1ncn(C)n1` [Example 110]: under 100 nM.

Take `COc1c(Nc2cc(Nc3cc(C)nc(C)n3)ncc2C(=O)C2CC2)cccc1-c1ncn(C)n1` [Example 111]: the IC50 was under 100 nM. Regarding `COc1c(Nc2cc(Nc3cccc(C)n3)ncc2C(=O)C2CC2)cccc1-c1ncn(C)n1` [Example 112], the IC50 was under 100 nM.

With `COc1c(Nc2cc(Nc3ccc(C)nn3)ncc2C(=O)C2CC2)cccc1-c1ncn(C)n1` [Example 113], the IC50 is under 100 nM. On the same count and under the same terms, the same measure for `CCC(=O)c1cnc(NC(=O)N2CCC2)cc1Nc1cccc(-c2ncn(C)n2)c1OC` [Example 114]: under 100 nM.

`CCC(=O)c1cnc(N2CCN(C(C)C)C2=O)cc1Nc1cccc(-c2ncn(C)n2)c1OC` [Example 115]: the IC50 was under 100 nM. With `CCC(=O)c1cnc(NC(=O)C2CC2)cc1Nc1cccc(-c2ncn(C)n2)c1OC` [Example 116], the IC50 is under 100 nM.

Consider `COc1c(Nc2cc(Nc3ncccc3F)ncc2C(=O)C2CC2)cccc1-c1ncn(C)n1` [Example 119], for which the IC50 is under 100 nM. Same read-out and setting: the same measure for `COc1c(Nc2cc(Nc3ccc(C(C)(C)O)c(F)n3)ncc2C(=O)C2CC2)cccc1-c1ncn(C)n1` [Example 120]: under 100 nM. On the same count and under the same terms, the same measure for `COc1c(Nc2cc(NC(=O)NC(C)C)ncc2C(=O)C2CC2)cccc1-c1ncn(C)n1` [Example 121]: under 100 nM; for `COc1c(Nc2cc(Nc3ccc(C(C)(C)O)cn3)ncc2C(=O)C2CC2)cccc1-c1ncn(C)n1` [Example 122]: under 100 nM; for `COc1c(Nc2cc(Nc3ccc(OC4CCOC4)cn3)ncc2C(=O)C2CC2)cccc1-c1ncn(C)n1` (centres unmarked) [Example 124]: under 100 nM. The same measure, in the same setting: the same measure for `CS(=O)(=O)c1cccnc1Nc1cc(Nc2cccnn2)ncc1C(=O)C1CC1` [Example 125]: under 100 nM; for `CNC(=O)c1nnc(NC(=O)N2CC(C)C2)cc1Nc1cccc(-c2ncn(C)n2)c1OC` [Example 129]: under 100 nM. On to `COc1c(Nc2cc(NC(=O)C3CC3F)ncc2C(=O)C2CC2)cccc1-c1ncn(C)n1` (centres unmarked) [Example 130], for which the IC50 was under 100 nM. Regarding `COc1c(-c2ncn(C)n2)ccnc1Nc1cc(Nc2ccc(C(C)(C)O)c(F)n2)ncc1C(=O)C1CC1` [Example 131], the IC50 is under 100 nM. Same read-out and setting: the same measure for `COc1c(Nc2cc(Nc3cc(C)n(C)n3)ncc2C(=O)C2CC2)cccc1-c1ncn(C)n1` [Example 132]: under 100 nM; for `COc1c(Nc2cc(NC(=O)N3CC(C)(C)C3)ncc2C(=O)C2CC2)cccc1-c1ncn(C)n1` [Example 133]: under 100 nM. Same read-out and setting: the same measure for `COc1c(Nc2cc(Nc3nccc(=O)[nH]3)ncc2C(=O)C2CC2)cccc1-c1ncn(C)n1` [Example 135]: 1000 to 10000 nM; for `COc1c(Nc2cc(Nc3cc(C#N)ccn3)ncc2C(=O)C2CC2)cccc1-c1ncn(C)n1` [Example 136]: under 100 nM; for `CS(=O)(=O)c1cccnc1Nc1cc(Nc2ccccn2)ncc1C(=O)C1CC1` [Example 137]: under 100 nM. On the same count and under the same terms, the same measure for `COc1c(Nc2cc(Nc3ccn(C)n3)ncc2C(=O)C2CC2)cccc1-c1ncn(C)n1` [Example 138]: under 100 nM; for `COc1c(Nc2cc(Nc3ccc(C#N)cn3)ncc2C(=O)C2CC2)cccc1-c1ncn(C)n1` [Example 139]: under 100 nM. With `COc1c(Nc2cc(Nc3cccc(C#N)n3)ncc2C(=O)C2CC2)cccc1-c1ncn(C)n1` [Example 140], the IC50 is under 100 nM. As to `COc1c(-c2ncn(C)n2)ccnc1Nc1cc(Nc2ccccn2)ncc1C(=O)C1CC1` [Example 141], the concentration for half-maximal inhibition (IC50) is under 100 nM. Still for that read-out and setting: the same measure for `[2H]C([2H])([2H])NC(=O)c1nnc(NC(=O)N2CC(C)(F)C2)cc1Nc1cccc(-c2ncn(C)n2)c1OC` [Example 142]: under 100 nM; for `COc1c(Nc2cc(Nc3ccnc(C#N)n3)ncc2C(=O)C2CC2)cccc1-c1ncn(C)n1` [Example 143]: under 100 nM; for `[2H]C([2H])([2H])NC(=O)c1nnc(NC(=O)N2CC(C#N)C2)cc1Nc1cccc(-c2ncn(C)n2)c1OC` [Example 144]: under 100 nM. On to `[2H]C([2H])([2H])NC(=O)c1cnc(NC(=O)N2CC(C)(C)C2)cc1Nc1cccc(-c2ncn(C)n2)c1OC` [Example 148], for which the IC50 was under 100 nM. Same read-out and setting: the same measure for `COc1c(Nc2cc(Nc3ccc(N4CCOCC4=O)cn3)ncc2C(=O)C2CC2)cccc1-c1ncn(C)n1` [Example 149]: under 100 nM; for `[2H]C([2H])([2H])NC(=O)c1nnc(NC(=O)N2CC3(CC3)C2)cc1Nc1cccc(-c2ncn(C)n2)c1OC` [Example 150]: under 100 nM; for `[2H]C([2H])([2H])NC(=O)c1nnc(NC(=O)N2CC(F)(C#N)C2)cc1Nc1cccc(-c2ncn(C)n2)c1OC` [Example 151]: under 100 nM. The same measure, in the same setting: the same measure for `COc1c(Nc2cc(Nc3cnc(C)cn3)ncc2C(=O)C2CC2)cccc1-c1ncn(C)n1` [Example 152]: under 100 nM; for `COc1c(Nc2cc(Nc3ccnc(C)n3)ncc2C(=O)C2CC2)cccc1-c1ncn(C)n1` [Example 153]: under 100 nM; for `COc1c(Nc2cc(Nc3cc(C)ncn3)ncc2C(=O)C2CC2)cccc1-c1ncn(C)n1` [Example 154]: under 100 nM.

Turning to `COc1c(-c2ncn(C)n2)ccnc1Nc1cc(Nc2ccc(C)nn2)ncc1C(=O)C1CC1` [Example 155], the 50% inhibitory concentration (IC50) was under 100 nM. The same measure, in the same setting: the same measure for `[2H]C([2H])([2H])NC(=O)c1nnc(NC(=O)N2CC(C)(C)C2)cc1Nc1cccc(-c2ncn(C([2H])([2H])[2H])n2)c1OC` [Example 156]: under 100 nM.

On to `[2H]C([2H])([2H])NC(=O)c1nnc(NC(=O)N2CC(C(F)F)C2)cc1Nc1cccc(-c2ncn(C)n2)c1OC` [Example 157], for which the concentration for half-maximal inhibition (IC50) is under 100 nM. Still for that read-out and setting: the same measure for `[2H]C([2H])([2H])NC(=O)c1nnc(NC(=O)N2CC(OC)C2)cc1Nc1cccc(-c2ncn(C)n2)c1OC` [Example 158]: under 100 nM.
